Assay results from ChEMBL document CHEMBL1201862, “PubChem BioAssay data set” (2004).
Activity calls are given as the source filed them.

What was measured:
[1] = target: Photoreceptor-specific nuclear receptor (Homo sapiens, UniProt Q9Y5X4); type: functional, cell-based;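 note: CHO-S cells with Gal4-NCOR and VP16-NR2E3 two-hybrid luciferase reporter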
HEK293 [2] = assay: cells; type: functional, cell-based; details: Homo sapiens
HEK293 [3] = assay: cells; type: functional, cell-based; details: Homo sapiens; remark: listed apart in the source
HEK293 [4] = assay: NOD2 signaling inhibitors in MDP-stimulated cells, cell-based, uHTS, luminescence (AID 2001); type: functional; details: Homo sapiens
[5] = target: Nucleotide-binding oligomerization domain-containing protein 2 (Homo sapiens, UniProt Q9HC29); assay: inhibition of NOD2-driven NF-kB reporter – cell-based, luminescence, uHTS, HEK293 (AID 1566); type: functional
Chain of Nucleotide-binding oligomerization domain-containing protein 2 (Q9HC29 whole entry, the tested form may be a part): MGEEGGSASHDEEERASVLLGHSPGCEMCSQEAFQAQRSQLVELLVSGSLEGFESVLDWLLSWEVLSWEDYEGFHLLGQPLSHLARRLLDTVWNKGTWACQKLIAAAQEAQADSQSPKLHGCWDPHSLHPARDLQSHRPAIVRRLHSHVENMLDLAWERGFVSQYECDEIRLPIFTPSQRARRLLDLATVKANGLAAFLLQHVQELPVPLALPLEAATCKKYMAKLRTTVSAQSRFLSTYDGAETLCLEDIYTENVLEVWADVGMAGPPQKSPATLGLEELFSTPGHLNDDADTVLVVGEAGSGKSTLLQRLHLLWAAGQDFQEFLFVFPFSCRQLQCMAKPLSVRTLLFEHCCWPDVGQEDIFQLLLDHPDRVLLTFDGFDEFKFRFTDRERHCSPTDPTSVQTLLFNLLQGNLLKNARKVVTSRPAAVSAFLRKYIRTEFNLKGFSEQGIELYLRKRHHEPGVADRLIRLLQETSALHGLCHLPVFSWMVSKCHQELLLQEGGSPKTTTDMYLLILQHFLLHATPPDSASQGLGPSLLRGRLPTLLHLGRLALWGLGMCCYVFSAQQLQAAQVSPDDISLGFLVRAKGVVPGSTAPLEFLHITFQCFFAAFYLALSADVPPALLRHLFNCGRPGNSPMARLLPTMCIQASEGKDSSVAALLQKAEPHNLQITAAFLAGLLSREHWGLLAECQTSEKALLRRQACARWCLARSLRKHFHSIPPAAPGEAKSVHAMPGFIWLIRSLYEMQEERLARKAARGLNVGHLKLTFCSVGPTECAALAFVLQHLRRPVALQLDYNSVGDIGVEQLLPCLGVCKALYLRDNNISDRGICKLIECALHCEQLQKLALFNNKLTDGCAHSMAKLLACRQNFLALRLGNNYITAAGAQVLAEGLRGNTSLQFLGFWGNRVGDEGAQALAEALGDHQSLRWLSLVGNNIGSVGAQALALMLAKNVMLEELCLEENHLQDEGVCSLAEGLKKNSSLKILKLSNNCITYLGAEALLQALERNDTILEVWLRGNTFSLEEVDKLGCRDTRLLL

HEK293 [6] = assay: cells; type: functional, cell-based; details: Homo sapiens; remark: listed apart in the source
HEK293 [7] = assay: inhibition of NOD1-driven NF-kB reporter – cell-based, luminescence, uHTS, primary screen (AID 1578); type: functional; details: Homo sapiens
[8] = target: T1, Sentrin-specific protease 1 (Homo sapiens, UniProt Q9P0U3); assay: Dose response confirmation of small molecule inhibitors of the catalytic domain of the SUMO protease, SENP1 in a FRET assay.; type: functional; details: read-out: IC50_Mean
T1 sequence (Q9P0U3 whole entry): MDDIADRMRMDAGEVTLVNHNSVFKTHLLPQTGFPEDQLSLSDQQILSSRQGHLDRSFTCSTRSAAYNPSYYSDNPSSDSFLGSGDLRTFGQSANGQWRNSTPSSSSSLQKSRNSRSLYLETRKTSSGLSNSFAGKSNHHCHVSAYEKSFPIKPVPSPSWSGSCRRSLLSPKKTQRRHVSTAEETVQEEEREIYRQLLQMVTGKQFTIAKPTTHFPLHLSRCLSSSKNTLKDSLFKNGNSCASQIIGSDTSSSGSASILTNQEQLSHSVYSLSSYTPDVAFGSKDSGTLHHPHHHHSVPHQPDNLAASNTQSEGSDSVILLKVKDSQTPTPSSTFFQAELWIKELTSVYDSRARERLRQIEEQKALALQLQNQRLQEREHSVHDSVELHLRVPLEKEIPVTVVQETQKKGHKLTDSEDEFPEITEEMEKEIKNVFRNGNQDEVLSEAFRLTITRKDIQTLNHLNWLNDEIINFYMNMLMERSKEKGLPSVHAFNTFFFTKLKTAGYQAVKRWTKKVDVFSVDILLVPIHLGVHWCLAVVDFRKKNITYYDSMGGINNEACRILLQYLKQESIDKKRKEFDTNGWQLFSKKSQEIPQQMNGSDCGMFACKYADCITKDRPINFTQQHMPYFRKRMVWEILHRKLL

[9] = target: T1, Sentrin-specific protease 1; assay: SENP1 catalytic domain blockers, concentration series – biochemical, kinetic FRET, dose response (AID 651697); type: functional; details: read-out: IC50_Mean
[10] = NIH3T3 cell viability loss – ATP luminescence, mouse fibroblasts, counter-screen, dose response (AID 2010); type: functional, cell-based;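 note: cells exposed to compound for about 90 hours before reading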
[11] = Trypanosoma cruzi growth suppression in host cells – NIH3T3 host cells, beta-gal luminescence, confirmation (AID 2044); type: functional, cell-based;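 note: intracellular parasites grown in NIH/3T3 mouse fibroblasts as host cells; luminescent beta-galactosidase reporter signal from transgenic T. cruzi replicating inside host cells; inhibitors lower the luminescence signal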
[12] = NIH-3T3 fibroblast cytotoxicity, dose response, cytotoxicity control, cell-based, fluorescence, Alamar Blue, secondary assay (AID 2327); type: functional;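 note: NIH-3T3 mouse fibroblasts cultured with fluconazole at 8 µg/mL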
Estrogen receptor = target: T2, Estrogen receptor (Homo sapiens, UniProt P03372);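 note: potency for inhibiting coactivator peptide recruitment to the receptor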
T2 sequence (P03372 whole entry): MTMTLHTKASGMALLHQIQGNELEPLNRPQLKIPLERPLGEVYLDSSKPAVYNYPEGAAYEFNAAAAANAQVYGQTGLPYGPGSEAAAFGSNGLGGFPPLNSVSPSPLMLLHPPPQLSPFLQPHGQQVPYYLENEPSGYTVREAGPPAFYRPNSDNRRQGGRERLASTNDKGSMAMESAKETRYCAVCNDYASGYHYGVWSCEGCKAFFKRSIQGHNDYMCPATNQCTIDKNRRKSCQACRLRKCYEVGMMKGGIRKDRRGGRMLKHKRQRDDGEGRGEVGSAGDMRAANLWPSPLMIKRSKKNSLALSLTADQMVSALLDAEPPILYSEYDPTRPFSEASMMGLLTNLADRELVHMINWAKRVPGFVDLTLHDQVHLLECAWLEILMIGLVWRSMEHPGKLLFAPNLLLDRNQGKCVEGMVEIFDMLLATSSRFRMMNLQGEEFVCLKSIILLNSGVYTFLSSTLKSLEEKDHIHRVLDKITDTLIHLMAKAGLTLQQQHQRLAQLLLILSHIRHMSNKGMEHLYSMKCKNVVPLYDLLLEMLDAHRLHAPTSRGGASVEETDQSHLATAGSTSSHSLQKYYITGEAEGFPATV

[13] = fluconazole-exposed Candida albicans growth modulators – fluorescence, retest, confirmation (AID 2467); type: functional, cell-based
Protein Wnt-3a = Protein Wnt-3a (Mus musculus, UniProt P27467); assay: antagonism of Wnt3a pathway luciferase reporter – Wnt-LIGHT cells, luminescence, selectivity assay for Gli-SUFU antagonist project, dose response (AID 651570); type: functional; details: read-out: IC50_Mean;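 note: Wnt-LIGHT reporter cells stimulated with conditioned medium from Wnt3a-producing cells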
Chain of Protein Wnt-3a (P27467 whole entry): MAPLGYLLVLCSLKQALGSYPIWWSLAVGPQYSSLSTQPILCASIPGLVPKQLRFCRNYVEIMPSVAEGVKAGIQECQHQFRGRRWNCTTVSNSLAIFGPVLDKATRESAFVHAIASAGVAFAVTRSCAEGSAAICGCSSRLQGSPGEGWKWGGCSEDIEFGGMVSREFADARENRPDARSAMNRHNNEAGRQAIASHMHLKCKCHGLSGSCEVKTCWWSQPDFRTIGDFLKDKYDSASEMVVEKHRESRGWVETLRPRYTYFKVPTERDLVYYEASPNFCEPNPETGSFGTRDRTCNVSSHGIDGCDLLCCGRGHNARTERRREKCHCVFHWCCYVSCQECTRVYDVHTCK

[14] = target: T3, Rac GTPase-activating protein 1 (Homo sapiens, UniProt Q9H0H5); assay: blockers of MgcRacGAP-driven Rac1 GTP hydrolysis – biochemical, ADP Hunter fluorescence, primary and confirmatory, confirmation (AID 624330); type: functional
T3 sequence (Q9H0H5 whole entry): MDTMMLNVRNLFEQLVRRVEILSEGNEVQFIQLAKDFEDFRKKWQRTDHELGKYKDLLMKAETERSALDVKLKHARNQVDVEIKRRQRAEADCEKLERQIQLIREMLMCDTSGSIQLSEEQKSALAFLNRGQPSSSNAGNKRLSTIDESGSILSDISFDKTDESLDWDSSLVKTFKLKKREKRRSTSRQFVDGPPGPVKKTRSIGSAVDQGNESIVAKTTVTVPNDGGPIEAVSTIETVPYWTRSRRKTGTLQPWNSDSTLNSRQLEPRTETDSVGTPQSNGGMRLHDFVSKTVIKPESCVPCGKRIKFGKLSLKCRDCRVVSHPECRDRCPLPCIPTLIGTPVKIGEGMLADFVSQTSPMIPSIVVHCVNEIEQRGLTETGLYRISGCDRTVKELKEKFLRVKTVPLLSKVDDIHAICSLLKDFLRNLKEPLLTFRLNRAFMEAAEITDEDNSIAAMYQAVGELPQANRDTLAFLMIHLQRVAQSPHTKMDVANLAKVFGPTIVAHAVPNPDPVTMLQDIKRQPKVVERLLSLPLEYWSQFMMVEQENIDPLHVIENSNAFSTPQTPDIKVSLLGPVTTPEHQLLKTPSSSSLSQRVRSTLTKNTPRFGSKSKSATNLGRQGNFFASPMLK

[15] = target: T4, Heat shock factor protein 1 (Mus musculus, UniProt P38532); assay: enhancement of HSF1-driven luciferase signal – cell-based, NIH3T3, luminescence, dose retest, confirmation (AID 435004); type: functional;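 note: stress induced by proteasome inhibitor MG132 added 30 min after compound; luciferase reporter driven by HSF1 response element in NIH3T3 cells; actives raise luminescence as potentiators of the MG132 stress response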
T4 sequence (P38532 whole entry): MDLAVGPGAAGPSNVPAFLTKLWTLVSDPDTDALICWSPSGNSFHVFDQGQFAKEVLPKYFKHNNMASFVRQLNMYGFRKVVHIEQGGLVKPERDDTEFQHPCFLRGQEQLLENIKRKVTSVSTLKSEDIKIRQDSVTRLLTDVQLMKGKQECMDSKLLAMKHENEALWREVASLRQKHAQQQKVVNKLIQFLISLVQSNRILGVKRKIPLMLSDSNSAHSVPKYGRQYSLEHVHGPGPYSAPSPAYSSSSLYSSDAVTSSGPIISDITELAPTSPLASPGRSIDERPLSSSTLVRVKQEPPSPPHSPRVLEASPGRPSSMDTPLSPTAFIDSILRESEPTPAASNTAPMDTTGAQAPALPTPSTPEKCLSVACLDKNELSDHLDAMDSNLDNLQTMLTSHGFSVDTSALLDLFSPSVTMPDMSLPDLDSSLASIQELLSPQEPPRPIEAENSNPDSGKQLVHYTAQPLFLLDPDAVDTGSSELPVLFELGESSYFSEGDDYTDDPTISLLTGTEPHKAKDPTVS

Large T antigen = Large T antigen (Simian virus 40, UniProt P03070); type: functional, Betapolyomavirus macacae;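 note: Confirmatory-stage PubChem screen for compounds that inhibit SV40 T antigen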
Chain of Large T antigen (P03070 whole entry): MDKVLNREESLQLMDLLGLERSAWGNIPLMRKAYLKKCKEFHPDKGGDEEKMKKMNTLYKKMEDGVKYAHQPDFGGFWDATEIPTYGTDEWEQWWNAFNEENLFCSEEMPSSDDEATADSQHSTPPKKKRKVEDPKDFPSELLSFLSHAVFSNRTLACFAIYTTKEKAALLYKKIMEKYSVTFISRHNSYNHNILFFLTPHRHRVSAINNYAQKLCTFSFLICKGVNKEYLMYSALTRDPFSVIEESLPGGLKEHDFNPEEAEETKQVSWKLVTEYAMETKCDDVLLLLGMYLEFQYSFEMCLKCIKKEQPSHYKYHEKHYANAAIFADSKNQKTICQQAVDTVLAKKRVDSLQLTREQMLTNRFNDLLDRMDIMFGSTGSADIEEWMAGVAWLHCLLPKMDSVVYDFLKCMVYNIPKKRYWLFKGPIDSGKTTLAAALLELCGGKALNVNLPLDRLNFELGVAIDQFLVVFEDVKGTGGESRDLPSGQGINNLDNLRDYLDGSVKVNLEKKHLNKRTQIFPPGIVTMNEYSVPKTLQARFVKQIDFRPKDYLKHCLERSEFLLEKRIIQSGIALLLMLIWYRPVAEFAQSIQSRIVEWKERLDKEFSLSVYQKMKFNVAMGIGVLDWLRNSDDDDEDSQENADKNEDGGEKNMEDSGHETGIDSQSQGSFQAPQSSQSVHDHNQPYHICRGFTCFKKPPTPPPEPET

[16] = activation of miR-122 Renilla sensor silencing – cell-based, Huh7 psiCHECK-miR122, Renilla luciferase, cherry-picked, dose response (AID 651956); type: functional;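 note: huh7 hepatoma cells stably carrying a psiCHECK-2 miR-122 sensor plasmid; renilla luciferase signal reporting endogenous miR-122 activity after 48 h compound exposure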

Chain of Photoreceptor-specific nuclear receptor (Q9Y5X4 whole entry, the tested form may be a part): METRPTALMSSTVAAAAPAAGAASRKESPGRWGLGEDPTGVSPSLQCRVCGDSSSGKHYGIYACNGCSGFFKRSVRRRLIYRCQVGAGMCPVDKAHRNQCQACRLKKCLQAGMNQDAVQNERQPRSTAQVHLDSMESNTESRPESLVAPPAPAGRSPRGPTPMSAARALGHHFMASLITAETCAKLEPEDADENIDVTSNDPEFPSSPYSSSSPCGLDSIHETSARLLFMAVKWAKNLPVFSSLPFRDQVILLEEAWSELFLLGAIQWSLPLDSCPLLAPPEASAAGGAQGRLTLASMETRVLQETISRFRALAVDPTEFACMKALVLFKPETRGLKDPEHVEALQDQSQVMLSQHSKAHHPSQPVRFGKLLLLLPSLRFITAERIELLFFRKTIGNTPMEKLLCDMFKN

Structure (SMILES): C=CCn1c(C)cc(C(=O)COc2ccc(C)nc2[N+](=O)[O-])c1C
- IC50 [1]: 4.69 µM (active)
- IC50 (HEK293 [2]): > 20 µM (inactive)
- IC50 (HEK293 [3]): 5.78 µM (active)
- IC50 (HEK293 [4]): > 20 µM (inactive)
- EC50 [5]: 6.96 µM (active)
- IC50 (HEK293 [6]): > 20 µM (inactive)
- EC50 (HEK293 [7]): > 20 µM (inactive)

Structure (SMILES): c1ccc(NC2=Nc3cccc4cccc2c34)cc1
- IC50 [8]: 17.2 µM (active)
- IC50 [9]: 53.8 µM (inactive)

Structure (SMILES): c1ccc(CN2CCN(C3=Nc4cccc5cccc3c45)CC2)cc1
- IC50 [8]: 7.24 µM (active)
- IC50 [9]: 7.01 µM (active)

Structure (SMILES): COc1ccc(NC2=Nc3cccc4cccc2c34)cc1
- IC50 [8]: 10 µM (active)
- IC50 [9]: 45.8 µM (inactive)

Structure (SMILES): Cc1cccc(-n2c(SCc3cc(=O)n4ccsc4n3)nc3ccccc32)c1
- EC50 [10]: > 60 µM (not active)
- EC50 [11]: < 100 nM (active)
- EC50 [12]: 19.9 µM (active)
- IC50 [8]: 9.71 µM (active)
- EC50 (cells): 209 nM (active)
- IC50 (Estrogen receptor): > 50 µM (not active)
- EC50 [13]: 2.05 µM (active)
- IC50 [9]: 22.3 µM (inactive)

Structure (SMILES): COc1cc(S(=O)(=O)Nc2ccc3c(c2)C(=O)N(C)C3=O)ccc1NC(C)=O
- IC50 [8]: 9.39 µM (active)
- IC50 [9]: 9.06 µM (active)

Structure (SMILES): O=C1N/C(=C\c2ccc(O)cc2)C(O)=C1/C=N/Cc1ccccc1
- IC50 [1]: 3.35 µM (active)
- IC50 (Protein Wnt-3a): 7.28 µM (active)
- IC50 [14]: 13 µM (active)
- EC50 [15]: 5.35 µM (active)
- IC50 (Large T antigen): 12.1 µM (active)

Structure (SMILES): CCCC#Cc1ccc2c(c1)O[C@H](CN(C)C(=O)c1ccncc1)[C@H](C)CN([C@@H](C)CO)S2(=O)=O
- AC50 [16]: 1.06 µM (active)

Structure (SMILES): CCC(=O)N1C[C@H]2[C@@H](c3ccccc31)[C@H](CO)N2C(=O)Nc1ccccc1F
- AC50 [16]: 4.38 µM (active)

Structure (SMILES): Cc1ccccc1-c1ccc2c(c1)O[C@@H](CN(C)C(=O)Nc1ccc(F)cc1)[C@@H](C)CN([C@@H](C)CO)S2(=O)=O
- AC50 [16]: 18.5 µM (active)
